Assay results published in BindingDB's records for doi:10.1016/j.bmcl.2009.06.075 (Pfizer, 2009).

assay: Antagonist activity at human P2Y12 receptor assessed as inhibition of ADP-induced platelet-rich plasma aggregation by turbidimetric method

SMILES | IC50
CCOC(=O)N1CCN(C(=O)[C@H](CCC(=O)O)NC(=O)c2cc(NCCN(C)C)cc(-c3ccccc3)n2)CC1 [(S)-4-(4-(2-(dimethylamino)ethylamino)-6-phenylpicolinamido)-5-(4-(ethoxycarbonyl)piperazin-1-yl)-5-oxopentanoic acid] | 36 µM
CCCCCCCOC(=O)N1CCN(C(=O)[C@H](CCC(=O)O)NC(=O)c2cccc(-c3ccccc3)n2)CC1 [(S)-5-(4-(heptyloxycarbonyl)piperazin-1-yl)-5-oxo-4-(6-phenylpicolinamido)pentanoic acid] | 56 µM
O=C(O)CC[C@H](NC(=O)c1cc(N2CCC(O)CC2)cc(-c2ccccc2)n1)C(=O)N1CCN(C(=O)OCCC2CCCC2)CC1 [(S)-5-(4-((2-cyclopentylethoxy)carbonyl)piperazin-1-yl)-4-(4-(4-hydroxypiperidin-1-yl)-6-phenylpicolinamido)-5-oxopentanoic acid] | 57.8 µM
CCCCCOC(=O)N1CCN(C(=O)[C@H](CCC(=O)O)NC(=O)c2cc(OCCCC)cc(-c3ccccc3)n2)CC1 [(4S)4-{[(4-Butoxy-6-phenylpyridin-2-yl)carbonyl]amino}-5-oxo-5-{4-[(pentyloxy)carbonyl]piperazin-1-yl}pentanoic Acid] | 28.4 µM
COC(=O)N1CCN(C(=O)[C@H](CCC(=O)O)NC(=O)c2cccc(-c3ccccc3)n2)CC1 [(S)-5-(4-(methoxycarbonyl)piperazin-1-yl)-5-oxo-4-(6-phenylpicolinamido)pentanoic acid] | > 100 µM

Results, then the molecule that gave them:

IC50 | SMILES
28 µM | CCCNc1cc(C(=O)N[C@@H](CCC(=O)O)C(=O)N2CCN(C(=O)OCC)CC2)nc(-c2ccccc2)c1 [(S)-5-(4-(ethoxycarbonyl)piperazin-1-yl)-5-oxo-4-(6-phenyl-4-(propylamino)picolinamido)pentanoic acid]
9.8 µM | CCOC(=O)N1CCN(C(=O)[C@H](CCC(=O)O)NC(=O)c2cc(N3CCC(O)CC3)cc(-c3ccccc3)n2)CC1 [(4S)5-[4-(Ethoxycarbonyl)piperazin-1-yl]-4-({[4-(4-hydroxypiperidin-1-yl)6-phenylpyridin-2-yl]carbonyl}amino)5-oxopentanoicAcid]
2.8 µM | CCOC(=O)N1CCN(C(=O)[C@H](CCC(=O)O)NC(=O)c2cc(N3CCC(N)CC3)cc(-c3ccccc3)n2)CC1 [(S)-4-(4-(4-aminopiperidin-1-yl)-6-phenylpicolinamido)-5-(4-(ethoxycarbonyl)piperazin-1-yl)-5-oxopentanoic acid]
11.5 µM | CCCCCOC(=O)N1CCN(C(=O)[C@H](CCC(=O)O)NC(=O)c2cc(OCCO)cc(-c3ccccc3)n2)CC1 [(4S)4-({[4-(2-Hydroxyethoxy)6-phenylpyridin-2-yl]carbonyl}-amino)5-oxo-5-{4-[(pentyloxy)carbonyl]piperazin-1-yl}pentanoicAcid]
11.1 µM | C=CCOC(=O)N1CCN(C(=O)[C@H](CCC(=O)O)NC(=O)c2cc(OCCO)cc(-c3ccccc3)n2)CC1 [(S)-5-(4-(allyloxycarbonyl)piperazin-1-yl)-4-(4-(2-hydroxyethoxy)-6-phenylpicolinamido)-5-oxopentanoic acid]
7.5 µM | CCOC(=O)N1CCN(C(=O)[C@H](CCC(=O)O)NC(=O)c2cc(OCCN)cc(-c3ccccc3)n2)CC1 [(4S)4-({[4-(2-Aminoethoxy)6-phenylpyridin-2-yl]carbonyl}-amino)5-[4-(ethoxycarbonyl)iperazin-1-yl]-5-oxopentanoicAcid]
13.3 µM | C=CCOC(=O)N1CCN(C(=O)[C@H](CCC(=O)O)NC(=O)c2cc(OCCOC)cc(-c3ccccc3)n2)CC1 [(S)-5-(4-(allyloxycarbonyl)piperazin-1-yl)-4-(4-(2-methoxyethoxy)-6-phenylpicolinamido)-5-oxopentanoic acid]
19 µM | CCCCCCOC(=O)N1CCN(C(=O)[C@H](CCC(=O)O)NC(=O)c2cccc(-c3ccccc3)n2)CC1 [(S)-5-(4-(hexyloxycarbonyl)piperazin-1-yl)-5-oxo-4-(6-phenylpicolinamido)pentanoic acid]
